Source: patent US4681872A (priority 1985, dated 1987)
Values after ≈ are worked out from the molar mass of the structure shown. Like-named read-outs stand apart in the source and are kept apart here.

Assays:
[1] = tested on: Staph. epidermidis 3519; experiment: antimicrobial spectrum, agar dilution MIC
[2] = tested on: Bact. fragilis SFM2906A; experiment: antimicrobial spectrum, agar dilution MIC
[3] = tested on: Staph. aureus ATCC 6538P; experiment: antimicrobial spectrum, agar dilution MIC
[4] = tested on: Staph. aureus ATCC 25923; experiment: antimicrobial spectrum, agar dilution MIC; format: cell-based; details: 35°-37° C., 20-24 hours
[5] = tested on: Cl. perfringens SFBC 2026; experiment: microbe, parasite or virus in culture; format: cell-based
[6] = tested on: Staph. aureus 642A; experiment: antimicrobial spectrum, agar dilution MIC; format: cell-based; details: BHI agar, 35°-37° C., 20-24 hours
[7] = tested on: Staph. aureus A-5278; experiment: antimicrobial spectrum, agar dilution MIC
[8] = tested on: Strep. pneumoniae; experiment: acute mouse protection test; format: in vivo, Swiss albino mice; details: mice, dosed 1 and 5 hours post-infection, observed 7 days; for ED50: Streptococcus pneumoniae, 168 h
[9] = tested on: Bact. fragilis SFM2975-7; experiment: antimicrobial spectrum, agar dilution MIC; format: cell-based; details: 35°-37° C., 20-24 hours
[10] = tested on: Micrococcus luteus 9341; experiment: antimicrobial spectrum, agar dilution MIC; details: BHI agar, 35°-37° C., 20-24 hours
[11] = tested on: Pseudomonas aeruginosa 5007; experiment: antimicrobial spectrum, agar dilution MIC; details: BHI agar, 35°-37° C., 20-24 hours
[12] = tested on: Staph. saprophyticus ATCC 15305; experiment: antimicrobial spectrum, agar dilution MIC; format: cell-based; details: 35°-37° C., 20-24 hours
[13] = tested on: Staph. aureus CYR 1162; experiment: antimicrobial spectrum, agar dilution MIC; format: cell-based; details: 35°-37° C., 20-24 hours
[14] = tested on: Bact. thetaiotamicron ATCC 29741; experiment: antimicrobial spectrum, agar dilution MIC
[15] = tested on: Staph. aureus NCTC 10649; experiment: antimicrobial spectrum, agar dilution MIC; format: cell-based; details: 35°-37° C., 20-24 hours
[16] = tested on: Fusobacterium SP GS-10; experiment: antimicrobial spectrum, agar dilution MIC
[17] = tested on: Peptostrep. micros ATCC 33270; experiment: antimicrobial spectrum, agar dilution MIC
[18] = tested on: Propionibacterium acnes 132; experiment: antimicrobial spectrum, agar dilution MIC
[19] = tested on: Peptostrep. SP TB-11; experiment: antimicrobial spectrum, agar dilution MIC
[20] = tested on: Strep. pyogenes EES61; experiment: antimicrobial spectrum, agar dilution MIC; format: cell-based; details: BHI agar, 35°-37° C., 20-24 hours
[21] = tested on: Strep. agalactiae CMX 508; experiment: antimicrobial spectrum, agar dilution MIC
[22] = tested on: Strep. pyogenes M79061-140; experiment: antimicrobial spectrum, agar dilution MIC; format: cell-based; details: 35°-37° C., 20-24 hours
[23] = tested on: E. coli H560; experiment: antimicrobial spectrum, agar dilution MIC
[24] = tested on: Bact. fragilis UC-2; details: BHI agar, 35°-37° C., 20-24 hours
[25] = tested on: Strep. bovis A5169; experiment: antimicrobial spectrum, agar dilution MIC; format: cell-based; details: BHI agar, 35°-37° C., 20-24 hours
[26] = tested on: Strep. pyogenes C203; experiment: antimicrobial spectrum, agar dilution MIC; format: cell-based; details: BHI agar, 35°-37° C., 20-24 hours
[27] = tested on: Strep. pyogenes; experiment: acute mouse protection test; format: in vivo, Swiss albino mice; details: mice, dosed 1 and 5 hours post-infection, observed 7 days; for ED50: Streptococcus pyogenes, 168 h
[28] = tested on: Staph. epidermidis CMX 728; experiment: antimicrobial spectrum, agar dilution MIC; format: cell-based; details: 35°-37° C., 20-24 hours
[29] = tested on: Pep. magnus ATCC 29328; experiment: antimicrobial spectrum, agar dilution MIC; format: cell-based; details: 35°-37° C., 20-24 hours
[30] = tested on: Bact. fragilis SFM2929-1; experiment: antimicrobial spectrum, agar dilution MIC
[31] = tested on: Staph. aureus CMX 686B; experiment: antimicrobial spectrum, agar dilution MIC
[32] = tested on: Staph. aureus CMX 739A; experiment: antimicrobial spectrum, agar dilution MIC; format: cell-based; details: BHI agar, 35°-37° C., 20-24 hours
[33] = tested on: Cl. difficile ATCC 9689; experiment: antimicrobial spectrum, agar dilution MIC
[34] = tested on: Lactobacillus Casei ATCC 7469; experiment: antimicrobial spectrum, agar dilution MIC; details: BHI agar, 35°-37° C., 20-24 hours
[35] = tested on: Bact. vulgatus 792; experiment: antimicrobial spectrum, agar dilution MIC; format: cell-based; details: BHI agar, 35°-37° C., 20-24 hours
[36] = tested on: Strep. agalactiae CMX 633; experiment: antimicrobial spectrum, agar dilution MIC; format: cell-based; details: 35°-37° C., 20-24 hours
[37] = tested on: Bact. fragilis UC-2; experiment: microbe, parasite or virus in culture; details: Bacteroides fragilis, UC2
[38] = Streptococcus pyogenes, read-out: MIC

## CCC1OC(=O)C(C)C(OC2CC(C)(OC)CC(C)O2)C(C)C(OC2OC(C)CC(N(C)C)C2O)C(C)(O)CC(C)C(=O)C(C)C2OC(=O)OC12C (stereo not shown) [4"-deoxyerythromycin A 11,12-carbonate]
[1]; Staph. epidermidis 3519, BHI agar, 35°-37° C., 20-24 hours
  MIC: .1 µg/mL (≈ 0.134 µM)
[2]; Bact. fragilis SFM2906A, BHI agar, 35°-37° C., 20-24 hours
  MIC: .8 µg/mL (≈ 1.08 µM)
[3]; Staph. aureus ATCC 6538P, BHI agar, 35°-37° C., 20-24 hours
  MIC: .1 µg/mL (≈ 0.134 µM)
[4]; BHI agar
  MIC: .03 µg/mL (≈ 0.0403 µM)
[5]; Cl. perfringens SFBC 2026, BHI agar, 35°-37° C., 20-24 hours
  MIC: .4 µg/mL (≈ 0.538 µM)
[6]
  MIC: .06 µg/mL (≈ 0.0807 µM)
[7]; Staph. aureus A-5278, BHI agar, 35°-37° C., 20-24 hours
  MIC: 128 µg/mL (≈ 172 µM)
[8]; oral
  ED-50: 200.0 mg/kg
[8]; subcutaneous
  ED-50: 44.1 mg/kg
[9]; BHI agar
  MIC: .8 µg/mL (≈ 1.08 µM)
[10]
  MIC: .02 µg/mL (≈ 0.0269 µM)
[11]
  MIC: 100 µg/mL (≈ 134 µM)
[12]; BHI agar
  MIC: .03 µg/mL (≈ 0.0403 µM)
[13]; BHI agar
  MIC: .06 µg/mL (≈ 0.0807 µM)
[14]; Bact. thetaiotamicron ATCC 29741, BHI agar, 35°-37° C., 20-24 hours
  MIC: 1.6 µg/mL (≈ 2.15 µM)
[15]; BHI agar
  MIC: .06 µg/mL (≈ 0.0807 µM)
[16]; Fusobacterium SP GS-10, BHI agar, 35°-37° C., 20-24 hours
  MIC: 25 µg/mL (≈ 33.6 µM)
[17]; Peptostrep. micros ATCC 33270, BHI agar, 35°-37° C., 20-24 hours
  MIC: .05 µg/mL (≈ 0.0672 µM)
[18]; Propionibacterium acnes 132, BHI agar, 35°-37° C., 20-24 hours
  MIC: .05 µg/mL (≈ 0.0672 µM)
[19]; Peptostrep. SP TB-11, BHI agar, 35°-37° C., 20-24 hours
  MIC: .8 µg/mL (≈ 1.08 µM)
[20]
  MIC: .01 µg/mL (≈ 0.0134 µM)
[21]; Strep. agalactiae CMX 508, BHI agar, 35°-37° C., 20-24 hours
  MIC: .02 µg/mL (≈ 0.0269 µM)
[22]; BHI agar
  MIC: .001 µg/mL (≈ 0.00134 µM)
[23]; E. coli H560, BHI agar, 35°-37° C., 20-24 hours
  MIC: 6.2 µg/mL (≈ 8.33 µM)
[24]
  MIC: 1.6 µg/mL (≈ 2.15 µM)
[25]
  MIC: .005 µg/mL (≈ 0.00672 µM)
[26]
  MIC: .004 µg/mL (≈ 0.00538 µM)
[27]; oral
  ED-50: 8.9 mg/kg
[27]; subcutaneous
  ED-50: 4.0 mg/kg
[28]; BHI agar
  MIC: .03 µg/mL (≈ 0.0403 µM)
[29]; BHI agar
  MIC: .2 µg/mL (≈ 0.269 µM)
[30]; Bact. fragilis SFM2929-1, BHI agar, 35°-37° C., 20-24 hours
  MIC: 1.6 µg/mL (≈ 2.15 µM)
[31]; Staph. aureus CMX 686B, BHI agar, 35°-37° C., 20-24 hours
  MIC: .1 µg/mL (≈ 0.134 µM)
[32]
  MIC: .03 µg/mL (≈ 0.0403 µM)
[33]; Cl. difficile ATCC 9689, BHI agar, 35°-37° C., 20-24 hours
  MIC: .4 µg/mL (≈ 0.538 µM)
[34]
  MIC: .01 µg/mL (≈ 0.0134 µM)
[35]
  MIC: .2 µg/mL (≈ 0.269 µM)
[36]; BHI agar
  MIC: .015 µg/mL (≈ 0.0202 µM)

## CC[C@H]1OC(=O)[C@H](C)[C@@H](O[C@H]2C[C@@](C)(OC)[C@@H](O)[C@H](C)O2)[C@H](C)[C@@H](O[C@@H]2O[C@H](C)C[C@H](N(C)C)[C@H]2O)[C@](C)(O)C[C@@H](C)C(=O)[C@H](C)[C@@H](O)[C@]1(C)O [Erythromycin A, reference compound]
[1]; Staphylococcus epidermidis, 3519
  MIC: 0.39 µg/mL (≈ 0.531 µM)
[2]; Bacteroides fragilis, SFM2906A
  MIC: 3.1 µg/mL (≈ 4.22 µM)
[3]; Staphylococcus aureus, ATCC6538P
  MIC: 0.39 µg/mL (≈ 0.531 µM)
[4]; Staphylococcus aureus, ATCC25923, BHI agar, read-out: MIC
  MIC: 0.06 µg/mL (≈ 0.0818 µM)
[5]; Clostridium perfringens, SFBC2026
  MIC: 1.6 µg/mL (≈ 2.18 µM)
[6]; Staphylococcus aureus, read-out: MIC
  MIC: 0.12 µg/mL (≈ 0.164 µM)
[7]; Staphylococcus aureus, A5278
  MIC: 128 µg/mL (≈ 174 µM)
[8]; oral
  ED50: 113 mg/kg
[8]; sc, subcutaneous
  ED50: 50 mg/kg
[9]; Bacteroides fragilis, SFM29757, BHI agar, read-out: MIC
  MIC: 6.3 µg/mL (≈ 8.58 µM)
[12]; Staphylococcus saprophyticus, ATCC15305, BHI agar, read-out: MIC
  MIC: 0.06 µg/mL (≈ 0.0818 µM)
[13]; Staphylococcus aureus, CYR1162, BHI agar, read-out: MIC
  MIC: 0.06 µg/mL (≈ 0.0818 µM)
[14]
  MIC: 3.1 µg/mL (≈ 4.22 µM)
[15]; Staphylococcus aureus, NCTC10649, BHI agar, read-out: MIC
  MIC: 0.12 µg/mL (≈ 0.164 µM)
[16]; Fusobacterium, SPGS10
  MIC: 50 µg/mL (≈ 68.1 µM)
[17]
  MIC: 0.1 µg/mL (≈ 0.136 µM)
[18]; Cutibacterium acnes, 132
  MIC: 0.05 µg/mL (≈ 0.0681 µM)
[19]
  MIC: 3.1 µg/mL (≈ 4.22 µM)
[20]; [38]
  MIC: 0.01 µg/mL (≈ 0.0136 µM)
[21]; Streptococcus agalactiae, CMX508
  MIC: 0.05 µg/mL (≈ 0.0681 µM)
[22]; Streptococcus pyogenes, M79061140, BHI agar, read-out: MIC
  MIC: 0.002 µg/mL (≈ 0.00273 µM)
[23]; Escherichia coli, H560
  MIC: 12.5 µg/mL (≈ 17 µM)
[25]; Streptococcus equinus, read-out: MIC
  MIC: 0.01 µg/mL (≈ 0.0136 µM)
[26]; [38]
  MIC: 0.004 µg/mL (≈ 0.00545 µM)
[37]
  MIC: 1.6 µg/mL (≈ 2.18 µM)
[27]; oral
  ED50: 50 mg/kg
[27]; sc, subcutaneous
  ED50: 3.5 mg/kg
[28]; Staphylococcus epidermidis, CMX728, BHI agar, read-out: MIC
  MIC: 0.06 µg/mL (≈ 0.0818 µM)
[29]; Finegoldia magna, ATCC29328, BHI agar, read-out: MIC
  MIC: 0.4 µg/mL (≈ 0.545 µM)
[30]; Bacteroides fragilis, SFM29291
  MIC: 3.1 µg/mL (≈ 4.22 µM)
[31]; Staphylococcus aureus, CMX686B
  MIC: 0.39 µg/mL (≈ 0.531 µM)
[32]; Staphylococcus aureus, CMX739A, read-out: MIC
  MIC: 0.06 µg/mL (≈ 0.0818 µM)
[33]; Clostridioides difficile, ATCC9689
  MIC: 0.4 µg/mL (≈ 0.545 µM)
[35]; Phocaeicola vulgatus, read-out: MIC
  MIC: 0.4 µg/mL (≈ 0.545 µM)
[36]; Streptococcus agalactiae, CMX633, BHI agar, read-out: MIC
  MIC: 0.015 µg/mL (≈ 0.0204 µM)
